Consider 22 sequences from the OligoGym collection.

The target of one data set is SOD1. Conditions: ASO.
The next data set addresses MALAT1. The conditions noted are these: ASO, A431, 0.005 µM.

Where “and” joins values, the source holds several entries; their conditions need not be identical. Equal values may be shown once. After the bases stand the sugars from the 5' end (letter, count) and the backbone: PS all phosphorothioate, else s phosphorothioate and o phosphodiester by linkage. Methylation of C is not given here. e = 2'-O-(2-methoxyethyl) (MOE); k = constrained ethyl (cEt); d = 2'-deoxy (DNA)

“TTGGATTCTTTTAATAG (sugars e2 k2 d9 k2 e2, PS)” registered a target mRNA inhibition in the data set with SOD1 (HepG2, 5 µM) of 8%.
In the case of “TTCCCCACACCTTCAC (sugars kekeddddddddekek, linkages s1 o3 s8 o1 s2)”, the target mRNA inhibition in the data set with SOD1 (A431, 0.12 µM) is 4%; with SOD1 (A431, 0.6 µM), 12%; with SOD1 (A431, 3 µM), 5%; with SOD1 (A431, 15 µM) it was 12%; with SOD1 (HepG2, 0.222 µM), 6%; with SOD1 (HepG2, 0.667 µM), 16%. The target mRNA inhibition with SOD1 (HepG2, 2 µM) worked out at 20%; with SOD1 (HepG2, 6 µM) it was 59%.
Regarding “TACAGGGTTTTTATTCA (sugars e3 k2 d7 k2 e3, PS)”, the target mRNA inhibition with SOD1 (HepG2, 3 µM) amounted to 11%.
The sequence “TCACACAATTACACTTTTAA (sugars e5 d10 e5, PS)” came in with a target mRNA inhibition with SOD1 (HepG2, 5 µM) of 15%.
The sequence “TCCACCTTTGCCCAAGT (sugars e3 k2 d7 k2 e3, PS)” came in with a target mRNA inhibition in the data set with SOD1 (HepG2, 3 µM) of 88%.
Sequence “ATCTGTGATTTAAGTCT (sugars e2 k2 d9 k2 e2, PS)” registered a target mRNA inhibition with SOD1 (HepG2, 5 µM) of 37%.
As for “CGCTGCAGGAGACTACG (sugars e3 k2 d7 k2 e3, PS)”, in the data set with SOD1 (HepG2, 3 µM), the target mRNA inhibition was determined as 0%.
In the data set with SOD1 (HepG2, 3 µM), “CAAGTTTAATACCCATC (sugars e3 k2 d7 k2 e3, PS)” gave a target mRNA inhibition of 37%.
On to “ATGTTTATTGGGCGATC (sugars e2 k2 d8 k2 e3, PS)”, for which the target mRNA inhibition was found to be 15% in the data set with SOD1 (HepG2, 0.1875 µM); 36% with SOD1 (HepG2, 0.75 µM); 79% with SOD1 (HepG2, 3 µM); 76% with SOD1 (HepG2, 4 µM); 95% with SOD1 (HepG2, 12 µM).
In the data set with SOD1 (HepG2, 5 µM), “GTGCCATACAGGGTTTT (sugars e2 k2 d9 k2 e2, PS)” showed a target mRNA inhibition of 28%.
Still for that read-out and setting: the figure for “TCACAGGCTTGAATGAC (sugars e2 k2 d8 k2 e3, PS)” is 28%.
As for “TTTAATGTTTATCAGGAT (sugars e5 d8 e5, linkages s1 o3 s9 o2 s2)”, the target mRNA inhibition with SOD1 (A431, 0.12 µM) is 13%; in the data set with SOD1 (A431, 0.6 µM), 19%; with SOD1 (A431, 3 µM), 22%; with SOD1 (A431, 15 µM), 7%; in the data set with SOD1 (HepG2, 0.222 µM), 10%; in the data set with SOD1 (HepG2, 0.667 µM) it was 24%. The target mRNA inhibition in the data set with SOD1 (HepG2, 2 µM) came out at 28%; with SOD1 (HepG2, 6 µM), 53%.
In the case of “CTGACAAGTTTAATACC (sugars e2 k2 d8 k2 e3, PS)”, in the data set with SOD1 (HepG2, 5 µM), the target mRNA inhibition is 30%.
For the sequence “TCGCCCTTCAGCACGCA (sugars e2 k2 d9 k2 e2, PS)”, the target mRNA inhibition was 63% and 60% and 54% with SOD1 (HepG2, 4 µM); 61% and 58% and 71% with SOD1 (HepG2, 5 µM); 74% with SOD1 (HepG2, 12 µM).
In the data set with SOD1 (HepG2, 3 µM), “ACAGGGTTTTTATTCAC (sugars e3 k2 d7 k2 e3, PS)” yielded a target mRNA inhibition of 10%.
In the data set with SOD1 (HepG2, 5 µM), “CCAAGTGATCATAAATC (sugars e2 k2 d8 k2 e3, PS)” returned a target mRNA inhibition of 40%.
For the sequence “ACTCTGAAAAAGTCACACAA (sugars e5 d10 e5, PS)”, in the data set with SOD1 (HepG2, 5 µM), the target mRNA inhibition stood at 21%.
Same read-out and setting: the result for “GTGATCATAAATCAGTT (sugars e2 k2 d8 k2 e3, PS)” reads 33%.
As to “GCTTCCCCACACCTTCACTG (sugars e5 d10 e5, linkages s1 o3 s11 o3 s1)”, the target mRNA inhibition in the data set with SOD1 (A431, 0.12 µM) is 0%; with SOD1 (A431, 0.6 µM), 0%; in the data set with SOD1 (A431, 3 µM), 11%; with SOD1 (A431, 15 µM), 0%; with SOD1 (HepG2, 0.222 µM), 14%; with SOD1 (HepG2, 0.667 µM), 32%. For the same sequence, the target mRNA inhibition in the data set with SOD1 (HepG2, 2 µM) was determined as 79%; with SOD1 (HepG2, 6 µM), 55%.
For the sequence “CAGTGTTTAATGTTTATC (sugars e5 d8 e5, linkages s1 o3 s9 o2 s2)”, the target mRNA inhibition with SOD1 (A431, 0.12 µM) came out at 0%; with SOD1 (A431, 0.6 µM) it was 8%; with SOD1 (A431, 3 µM) it was 39%; with SOD1 (A431, 15 µM), 52%; with SOD1 (HepG2, 0.222 µM), 21%; with SOD1 (HepG2, 0.667 µM), 47%. Moreover, the target mRNA inhibition with SOD1 (HepG2, 2 µM) turned out to be 64%; with SOD1 (HepG2, 6 µM), 84%.
In the data set with SOD1 (HepG2, 5 µM), “TGATTTAAGTCTGGCAA (sugars e2 k2 d8 k2 e3, PS)” returned a target mRNA inhibition of 52%.
Take ATCATAATCTCCCACC (sugars k3 d10 k3, PS): in the data set with MALAT1, the target mRNA inhibition is 20%.
